Results from the supplement of paper PMC5908809.

Columns and labels:
NK-92 (IL-2 2.5 ng/mL) [1] = assay: drug sensitivity score (DSS) (DSS units); higher = more sensitive; extreme values may be limits of the assay; details: 72 h
[2] = test system: normal primary NK cells, pool 1 (3 donors) (IL-2 2.5 ng/mL); assay: as above; details: 72 h
[3] = test system: normal primary NK cells, pool 3 (3 donors) (IL-2 2.5 ng/mL); assay: as above; details: 72 h
IMC-1 (IL-2 20 ng/mL) [4] = assay: as above; details: 72 h
[5] = test system: normal primary NK cells, pool 2 (3 donors) (IL-2 2.5 ng/mL); assay: as above; details: 72 h
NKL (IL-2 2.5 ng/mL) [6] = assay: as above; details: 72 h
KAI3 (IL-2 2.5 ng/mL) [7] = assay: as above; details: 72 h
[8] = test system: normal primary NK cells, pool 1 (3 donors), resting (IL-2 0 ng/mL); assay: as above; details: 72 h
SNK-6 (IL-2 2.5 ng/mL) [9] = assay: as above; details: 72 h
DERL-7 (IL-2 2.5 ng/mL) [10] = assay: as above; details: 72 h
YT (IL-2 2.5 ng/mL) [11] = assay: as above; details: 72 h
NK-YS (IL-2 2.5 ng/mL) [12] = assay: as above; details: 72 h
KHYG-1 (IL-2 2.5 ng/mL) [13] = assay: as above; details: 72 h
NK-92 (IL-2 2.5 ng/mL) [14] = assay: percent inhibition of viability; higher = more inhibition; details: 72 h
[15] = test system: normal primary NK cells, pool 1 (3 donors) (IL-2 2.5 ng/mL); assay: as above; details: 72 h
[16] = test system: normal primary NK cells, pool 3 (3 donors) (IL-2 2.5 ng/mL); assay: as above; details: 72 h
IMC-1 (IL-2 20 ng/mL) [17] = assay: as above; details: 72 h
[18] = test system: normal primary NK cells, pool 2 (3 donors) (IL-2 2.5 ng/mL); assay: as above; details: 72 h
NKL (IL-2 2.5 ng/mL) [19] = assay: as above; details: 72 h
KAI3 (IL-2 2.5 ng/mL) [20] = assay: as above; details: 72 h
[21] = test system: normal primary NK cells, pool 1 (3 donors), resting (IL-2 0 ng/mL); assay: as above; details: 72 h
SNK-6 (IL-2 2.5 ng/mL) [22] = assay: as above; details: 72 h
DERL-7 (IL-2 2.5 ng/mL) [23] = assay: as above; details: 72 h
YT (IL-2 2.5 ng/mL) [24] = assay: as above; details: 72 h
NK-YS (IL-2 2.5 ng/mL) [25] = assay: as above; details: 72 h
KHYG-1 (IL-2 2.5 ng/mL) [26] = assay: as above; details: 72 h
[27] = test system: normal NK cells expanded with K562-aAPC; assay: as above; details: 72 h, IL-2 2.5 ng/mL
Experimental: (§1)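 Drug sensitivity and resistance testing on K562-aAPC-expanded normal NK cells: 5 concentrations (10-fold steps over a 10,000-fold range), 72 h at 37 °C, viability by CellTiter-Glo normalised to DMSO and benzethonium chloride controls; DSS from the fitted curve.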

[28] = test system: normal NK cells expanded with K562-aAPC; assay: drug sensitivity score (DSS) (DSS units); higher = more sensitive; extreme values may be limits of the assay; details: 72 h; IL-2 2.5 ng/mL
Experimental: as §1

Cc1ccccc1C(C(=O)NC1CCCCC1)N(C(=O)Cn1ccnc1C)c1cccc(F)c1 (centres undefined) [AGI-5198] (max concentration tested 10000 nM)
Details | drug sensitivity score
DERL-7 (IL-2 2.5 ng/mL) [10] | 0
IMC-1 (IL-2 20 ng/mL) [4] | 0
KAI3 (IL-2 2.5 ng/mL) [7] | 0
KHYG-1 (IL-2 2.5 ng/mL) [13] | 0
NK-92 (IL-2 2.5 ng/mL) [1] | 0.01
NK-YS (IL-2 2.5 ng/mL) [12] | 0.18
NKL (IL-2 2.5 ng/mL) [6] | 0.33
SNK-6 (IL-2 2.5 ng/mL) [9] | 0.54
YT (IL-2 2.5 ng/mL) [11] | 0
[2] | 0
[3] | 0
[5] | 0
[8] | 0
[28] | 0

percent inhibition of viability [%]
Details | 1 nM | 10 nM | 100 nM | 1000 nM | 10000 nM
DERL-7 (IL-2 2.5 ng/mL) [23] | -2.01 | 0.12 | 2.86 | 4.19 | 4.9
IMC-1 (IL-2 20 ng/mL) [17] | -3.01 | 0.83 | 3.36 | -0.42 | 6.36
KAI3 (IL-2 2.5 ng/mL) [20] | 1.08 | -2.21 | 4.4 | -7.93 | 5.53
KHYG-1 (IL-2 2.5 ng/mL) [26] | 2.51 | 1.12 | 2.9 | 0.31 | 10.8
NK-92 (IL-2 2.5 ng/mL) [14] | -13.7 | -5.86 | 2.38 | -10.7 | 12.8
NK-YS (IL-2 2.5 ng/mL) [25] | 1.52 | -1.9 | 7.02 | -2.36 | 15.5
NKL (IL-2 2.5 ng/mL) [19] | -11.8 | 5.55 | 4.44 | 6.62 | 15.3
SNK-6 (IL-2 2.5 ng/mL) [22] | 8.4 | 14.1 | -2.27 | 3.58 | 14.7
YT (IL-2 2.5 ng/mL) [24] | 0.66 | 2.4 | 5.93 | 3.4 | 10.8
[15] | -4.32 | -10.5 | -2.82 | -8.59 | -1.32
[16] | -10 | -4.39 | -0.6 | 2.48 | 5.96
[18] | -13.6 | -0.73 | 3.47 | 6.75 | 9.8
[21] | 7.51 | -9.12 | -0.43 | -14.1 | -4.43
[27] | -2.75 | -1.08 | -4.23 | 1.75 | 3.84
